In patent publication US6841537B1, “Combination therapy using nucleic acids and conventional drugs” (Protiva Biotherapeutics Inc., priority 1998, dated 2005):

How the values were obtained:
[1] = test system: HeLa-luc cells; experiment: Effect of aphidicolin on constitutive CMV driven luciferase gene expression; assay type: cell-based, human; conditions: 0, 6 and 24 hours after arrest vs untreated control cells
Protocol: SK-OV-3 cells (human ovarian tumor cells, ATCC) were cultured in RPMI 1640 media (StemCell Technologies, Vancouver, B.C.) supplemented with 10% fetal bovine serum (Intergen). HeLa-luc cells were stably transfected with a luciferase reporter plasmid and cultured in Dulbecco's modified Eagle medium (StemCell Technologies, Vancouver, B.C.) supplemented with 10% fetal bovine serum and 400 μg/mL Geneticin (Gibco BRL). […]
(§1) Luciferase assays were performed using the Luciferase Assay System kit (Promega, Madison, Wis.) according to the manufacturer's protocol. […] A standard curve was determined by assaying 20 μL of serial dilutions of a 1 mg/mL luciferase standard (Boehringer Mannheim). […] Absorbance was monitored at 570 nm (Dynatech MR5000 plate reader) and protein content calculated using a standard curve of varying concentrations of BSA.
To determine the effect of aphidicolin-mediated cell cycle arrest on the transcriptional and translational machinery of the cell, a clonal HeLa cell line stably transfected with a CMV driven luciferase expression cassette (Song, Inex Pharmaceuticals, unpublished) was analyzed. […]

[2] = test system: SK-OV-3 cells; experiment: Cell cycle arrest by aphidicolin, propidium iodide staining and flow cytometry; assay type: cell-based, human; conditions: (+/−) culture
Protocol: (§2) SK-OV-3 or HeLa-luc cells were seeded at a density of 30,000 cells per well in a 24 well plate in growth media 24 hours prior to treatment with aphidicolin. Aphidicolin (Sigma) was reconstituted in phosphate buffered saline containing 0.5% DMSO. Cells were incubated with aphidicolin at a final concentration of 5 μg/mL in 1 mL of media per well for 16 hours prior to transfection. Transfection was accomplished by the addition of 0.5 μg of formulated DNA to each well.
The cell cycle status of cultures was determined by flow cytometry of permeabilized cells that were stained with propidium iodide. Prior to harvesting, media was aspirated and the cells were washed twice with 2 mL phosphate buffered saline (PBS). […] 5,000 cells were analyzed in the FL2 channel (λemission=585+/−21 nm) of a FACSort flow cytometer (Becton-Dickinson, San Jose, Calif.) equipped with an Ar- ion laser (λexcitation=488 nm)
In an initial study, the effectiveness of a non-lethal concentration of aphidicholin to arrest SK-OV-3 cells was determined. A sub-confluent asynchronous cell culture contained approx. 75%, 5% and 20% of cells in G1, S and M phase, respectively, as measured by staining with propidium iodide (PI) followed by flow cytometry (FIG. 1(A)). […]

[3] = test system: SK-OV-3 cells; experiment: Lipid mediated transfection (luciferase activity) in aphidicolin treated cells; assay type: cell-based, human
Protocol: Lipoplexes were prepared as follows: All reagents were sterile and cooled to 4° C. prior to complex preparation. A solution containing 62 μM dioleoyldimethylammonium chloride:1,2-sn-dioleoylphosphatidylethanolamine (DODAC:DOPE) large unilamellar vesicles (LUVs) and a solution containing 10 μg/mL plasmid DNA were prepared in distilled water. The DNA was added to an equal volume of lipid dropwise, while vortexing. The solution was incubated on ice for 30 minutes prior to transfection. The resulting lipoplexes contained a final DNA concentration of 0.5 μg/100 μL and the cationic lipid:DNA (+:−) charge ratio was 1:1.
Plasmid containing a therapeutic gene was encapsulated as SPLP using the detergent dialysis method of INEX 351. […]
as §1
An initial experiment was performed to determine whether lipid mediated transfection was affected by the cell cycle status of SK-OV-3 cells in vitro. […] Luciferase activity was measured after 24 hrs of continuous exposure to lipoplexes. […]

[4] = test system: SK-OV-3 cells; experiment: Uptake of YOYO-1 labeled plasmid DNA lipoplexes by flow cytometry; assay type: cell-based, human; conditions: aphidicolin arrested vs control cells
Protocol: as §2, with “well. […]” for “well.”
Lipoplexes were prepared using YOYO-1 labeled DNA and incubated with cells. […] Fluorescence was measured in the FL1 channel (λemission=530+/−15 nm) of a FACSort flow cytometer (Becton-Dickinson, San Jose, Calif.) equipped with an Ar- ion laser ([…]). Data was collected from 10,000 cells and analyzed for fluorescence using CellQuest software.
In order to determine whether aphidicolin treatment affects cellular processes related to transgene expression, effects on DNA uptake and gene expression were studied. It has been shown previously that fluorescently labeled DNA can be formulated as lipoplexes and the uptake of lipoplexes can be measured by flow cytometry (see, Zabner, et al., J. Biol. Chem., 270:18997-19007 (1995); and Tseng, et al., Biotechnol. Bioeng., 50:548-554 (1996);). […] The rate of lipoplex uptake per cell was determined by flow cytometry. […]

[5] = test system: B16 cells; experiment: Luciferase activity in i.p. tumors after i.p. INEX 324 following OncoTCS; assay type: in vivo, C57 mice; conditions: OncoTCS 0.5 mg/kg i.v. 24 hours before INEX 324 i.p. 20 micrograms
Protocol: […] are seeded intraperitoneally with about 100,000 B16 cells. On day 7, 12 mice are injected i.v. via the tail vein with about 0.5 mg/kg of OncoTCS (vincristine sulfate encapsulated in sphingomyelin-containing TCS) in about 200 microliters. 12 control mice are not treated with OncoTCS. 24 hours later, all mice are injected i.p. with 20 micrograms of INEX 324 (TCS containing luciferase plasmid pINEX L018) in 500 microliters. Tumors are harvested 6, 12, 24 and 48 hours later, fast frozen, and stored at −70° C. until analyzed for luciferase activity. The frozen organs are then thawed at room temperature. 600 microliters of 1× cell culture lysis buffer (Promega) is added and the samples are homogenized in a FASTPREP homogenizer for 20 sec. at speed 4.0. The samples are centifuged for 2 min. at 10,000 g, and 20 microliters of the supernatant is assayed for luciferase activity.

[6] = test system: MCA 207 tumor; experiment: Combination therapy: OncoTCS then i.v. INEX 303 with pINEX-TK10 plus ganciclovir, tumor size; assay type: in vivo, C57 BL/6 mice; conditions: subtherapeutic pretreatment (OncoTCS 0.5 mg/kg i.v.) before INEX 303 pINEX-TK10 i.v. and ganciclovir i.p.
Protocol: C57 BL/6 mice are seeded subcutaneously with MCA 207 tumor cells. Tumor seeding is performed by standard techniques. Mice are seeded subcutaneously on the hip flank with 100,000 MCA-207 fibrosarcoma tumor cells by […] injection on day zero. The tumor cells are cultivated and prepared according to standard techniques using RPMI media with 10% Fetal Bovine Serum (see, for example, Current Protocols in Molecular Biology, Eds. Ausubel, F. M., et al.)
At 8, 16, 24, 30, 36, 42 or […] after OncoTCS treatment, the mice are injected i.v. via tail vein with INEX 303 containing pINEX-TK10 prepared as described herein (100 μg DNA with about 500 μg lipid all in about 200 μL total volume). Control mice receive HBS.
1 mg ganciclovir, which is in 200 μL PBS (approximately 50 mg/kg; commercially available from Hoffman La Roche) is administered by intraperitoneal injection 12 h and 24 h after SPLP administration.

[7] = test system: MCA 207 tumor; experiment: Combination therapy: OncoTCS then i.v. INEX 324 with pINEX-IL-12, tumor size; assay type: in vivo, C57 BL/6 mice; conditions: subtherapeutic dose (OncoTCS 0.5 mg/kg i.v.) before INEX 324 i.v. 100 μg DNA
Protocol: C57 BL/6 mice are seeded subcutaneously with MCA 207 tumor cells. Tumor seeding is performed by standard techniques. Mice were seeded subcutaneously on the hip flank with 100,000 MCA-207 fibrosarcoma tumor cells by sub-cutaneous injection on day zero.
On days 7-10, when tumors had developed to useable sizes, mice were injected i.v. via tail vein with approximately 0.5 mg/kg of OncoTCS (200 μL).
At 8, 16, 24, 30, 36, 42 or […] after OncoTCS treatment, the mice were injected i.v. via tail vein with INEX 324 (100 μg DNA pINEX-1L-12 with about 500 μg lipid all in about 200 μL total volume). Control mice received HBS.

SMILES	effect on level of luciferase gene expression [1]	cells in the G2/M phase ([2]; 16 hrs after removal of aphidicolin block)	cells that had undergone mitotic division and progressed into the G1 phase ([2]; within 22 hrs after removal of aphidicolin block) [%]	decrease in luciferase gene expression ([3]; (+/+) culture arrested in G1, 24 hrs continuous exposure to DODAC:DOPE lipoplexes, vs asynchronous control) [fold]	luciferase expression vs control asynchronous culture ([3]; (+/−) culture, 24 hrs exposure to lipoplexes)	effect of cell cycle arrest on internalization of lipoplexes [4]	transfection of tumors [5]	tumor growth vs HSV-TK/ganciclovir system alone [6]	effect on therapeutic effect of pINEX-IL-12 in INEX 324 [7]
C[C@@]1(CO)[C@H](O)CC[C@@]2(C)[C@H]1CC[C@H]1C[C@@H]3C[C@@]12CC[C@]3(O)CO [aphidicolin, Aphidicolin]	did not significantly affect	approximately 85%	~45	20	did not differ significantly	does not affect the internalization of lipoplexes	–	–	–
CC[C@]1(O)C[C@H]2CN(CCc3c([nH]c4ccccc34)[C@@](C(=O)OC)(c3cc4c(cc3OC)N(C=O)[C@H]3[C@@](O)(C(=O)OC)[C@H](OC(C)=O)[C@]5(CC)C=CCN6CC[C@]43[C@@H]65)C2)C1 [vincristine]	–	–	–	–	–	–	transfection of neoplastic sites	inhibits growth of tumors and promotes tumor regression to a significantly greater degree	greatly enhances the therapeutic effect
